Earlier results in patent US5711967A (Spirig AG, Pharmazeutische Praeparate, priority 1991, dated 1998).

Experiments:
mucosa = settings: release in the stomach
[1] = above pKa value of approx. 4-5

**Q.** What does the source list for `O=C(O)Cc1ccccc1Nc1c(Cl)cccc1Cl` [diclofenac]?
**A.** distribution into the synovial fluid (from the blood plasma): concentrate in the synovial fluid, with a delay; elimination half-life (non-delayed-action diclofenac): 1 to 2 h; blood concentration half-life (oral diclofenac preparations): one to two; action on mucosa (mucosa): mucosa-irritating and/or mucosa-damaging; solubility in aqueous media [1]: increases considerably above this value
